What was measured:
MCF-10A = experiment: drug sensitivity score (DSS), CellTiter-Glo (DSS (AUC-based score)); higher = stronger drug effect (viability inhibition or cytotoxicity); extreme values may be limits of the assay; settings: incubation time: 72 h
In short: (§1)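 Breast cancer cell lines were seeded in 20 µl suspension into 384-well plates already holding compound and incubated for 72 h. Each compound was tested at 5 concentrations in 10-fold steps across its own 10,000-fold range. Plates were normalised to 0.1 % DMSO and a positive kill control after CellTox Green and then CellTiter-Glo readings. The area under the fitted dose-response curve served as the basis for the drug sensitivity score.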

MDA-MB-436 = experiment: as above; settings: incubation time: 72 h
In short: as §1

HCC1143 [1] = experiment: as above; settings: incubation time: 72 h
In short: as §1

MFM-223 = experiment: as above; settings: incubation time: 72 h
In short: as §1

MDA-MB-453 [2] = experiment: as above; settings: incubation time: 72 h
In short: as §1

DU-4475 [3] = experiment: as above; settings: incubation time: 72 h
In short: as §1

HDQ-P1 [4] = experiment: as above; settings: incubation time: 72 h
In short: as §1

HCC1599 [5] = experiment: as above; settings: incubation time: 72 h
In short: as §1

MDA-MB-468 = experiment: normalised viability (% of control), CellTiter-Blue; higher = more viable cells (about 100 = DMSO control); settings: incubation time: 72 h
In short: (§2)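 Each entry is normalised viability at a single listed concentration within a series. It comes from breast cancer cell lines incubated 72 h with compound in 384-well plates, then measured with CellTiter-Blue fluorescence at 560/590 nm. Every plate was normalised between vehicle (100) and a positive kill control (0).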

HCC1143 [6] = experiment: as above; settings: incubation time: 72 h
In short: as §2

HCC1937 = experiment: as above; settings: incubation time: 72 h
In short: as §2

BT-474 = experiment: as above; settings: incubation time: 72 h
In short: as §2

CAL-51 [7] = experiment: as above; settings: incubation time: 72 h
In short: as §2

SK-BR-3 = experiment: as above; settings: incubation time: 72 h
In short: as §2

CAL-85-1 [8] = experiment: as above; settings: incubation time: 72 h
In short: as §2

BT-549 = experiment: as above; settings: incubation time: 72 h
In short: as §2

HDQ-P1 [9] = experiment: as above; settings: incubation time: 72 h
In short: as §2

HCC1599 [10] = experiment: as above; settings: incubation time: 72 h
In short: as §2

MDA-MB-231 = experiment: as above; settings: incubation time: 72 h
In short: as §2

MDA-MB-453 [11] = experiment: normalised viability (% of control), CellTiter-Blue; higher = more viable cells (about 100 = DMSO control); settings: 3000 nM; incubation time: 72 h
Method: (§3)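 DSRT, CellTiter-Blue viability, 72 h incubation. Signal is normalised to DMSO and benzethonium chloride controls. Value is the normalised response at dose 8.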

CAL-51 [12] = experiment: as above; settings: 3000 nM; incubation time: 72 h
Method: as §3

DU-4475 [13] = experiment: as above; settings: 3000 nM; incubation time: 72 h
Method: as §3

CAL-85-1 [14] = experiment: as above; settings: 3000 nM; incubation time: 72 h
Method: as §3

CAL-148 = experiment: as above; settings: 3000 nM; incubation time: 72 h
Method: as §3

HDQ-P1 [15] = experiment: as above; settings: 3000 nM; incubation time: 72 h
Method: as §3

Cc1ccc(-c2cc(C(F)(F)F)nn2-c2ccc(S(N)(=O)=O)cc2)cc1 [Celecoxib]
Settings | drug sensitivity score | normalised viability [%]
CAL-51 [12] | – | 99.5
CAL-85-1 [14] | – | 77.6
CAL-148 | – | 89.3
DU-4475 [3] | 0 | –
DU-4475 [13] | – | 96.6
HCC1143 [1] | 0 | –
HCC1599 [5] | 0 | –
HDQ-P1 [4] | 0 | –
HDQ-P1 [15] | – | 83.9
MCF-10A | 0 | –
MDA-MB-436 | 0 | –
MDA-MB-453 [2] | 0 | –
MDA-MB-453 [11] | – | 91.7
MFM-223 | 0 | –

normalised viability [%]
Settings | 3 nM | 10 nM | 30 nM | 100 nM | 1000 nM | 10000 nM
BT-474 | – | 111 | – | – | 97.3 | 105
BT-549 | – | 86.6 | – | – | 106 | 78.4
CAL-51 [7] | 99 | – | 98.3 | 94.4 | – | –
CAL-85-1 [8] | 91.6 | – | 75 | 76.7 | – | –
HCC1143 [6] | – | 90.3 | – | – | 95.5 | 86
HCC1599 [10] | – | 99 | – | – | 95.7 | 65.6
HCC1937 | – | 85.3 | – | – | 80.3 | 79.4
HDQ-P1 [9] | 104 | – | 93.5 | 85 | – | –
MDA-MB-231 | – | 96.2 | – | – | 86.7 | 99.6
MDA-MB-468 | – | 96.6 | – | – | 107 | 95
SK-BR-3 | – | 87.6 | – | – | 90.2 | 79.7

CCCS(=O)(=O)Nc1ccc(F)c(C(=O)c2c[nH]c3ncc(-c4ccc(Cl)cc4)cc23)c1F [Vemurafenib]
Settings | drug sensitivity score | normalised viability [%]
CAL-51 [12] | – | 107
CAL-85-1 [14] | – | 75.7
CAL-148 | – | 89.1
DU-4475 [3] | 14.1 | –
DU-4475 [13] | – | 4.66
HCC1143 [1] | 0 | –
HCC1599 [5] | 0 | –
HDQ-P1 [4] | 0 | –
HDQ-P1 [15] | – | 83.1
MCF-10A | 0 | –
MDA-MB-436 | 0 | –
MDA-MB-453 [2] | 0 | –
MDA-MB-453 [11] | – | 87.3
MFM-223 | 0 | –

normalised viability [%]
Settings | 3 nM | 10 nM | 30 nM | 100 nM | 1000 nM | 10000 nM
BT-474 | – | 106 | – | – | 120 | 107
BT-549 | – | 96.4 | – | – | 105 | 57.3
CAL-51 [7] | 102 | – | 95.4 | 92.9 | – | –
CAL-85-1 [8] | 92.8 | – | 84.6 | 87.2 | – | –
HCC1143 [6] | – | 95.8 | – | – | 102 | 87.4
HCC1599 [10] | – | 77.6 | – | – | 87.6 | 90.9
HCC1937 | – | 109 | – | – | 101 | 67.7
HDQ-P1 [9] | 92.9 | – | 105 | 106 | – | –
MDA-MB-231 | – | 91.5 | – | – | 92.4 | 100
MDA-MB-468 | – | 113 | – | – | 107 | 63.5
SK-BR-3 | – | 88.5 | – | – | 93.8 | 95

From the supplement of paper PMC4862054
